Measured values taken from ChEMBL document CHEMBL1146007, “Binding of sulfonyl-containing arylalkylamines at human 5-HT6 serotonin receptors” (J Med Chem, 2006).

Each compound was assayed against 5-hydroxytryptamine receptor 6 (Homo sapiens, UniProt P50406) (assay: Binding affinity to human 5HT6 receptor in HEK293 cells by radioligand binding assay).
Type: cell-based

Chain of 5-hydroxytryptamine receptor 6 (P50406 whole entry): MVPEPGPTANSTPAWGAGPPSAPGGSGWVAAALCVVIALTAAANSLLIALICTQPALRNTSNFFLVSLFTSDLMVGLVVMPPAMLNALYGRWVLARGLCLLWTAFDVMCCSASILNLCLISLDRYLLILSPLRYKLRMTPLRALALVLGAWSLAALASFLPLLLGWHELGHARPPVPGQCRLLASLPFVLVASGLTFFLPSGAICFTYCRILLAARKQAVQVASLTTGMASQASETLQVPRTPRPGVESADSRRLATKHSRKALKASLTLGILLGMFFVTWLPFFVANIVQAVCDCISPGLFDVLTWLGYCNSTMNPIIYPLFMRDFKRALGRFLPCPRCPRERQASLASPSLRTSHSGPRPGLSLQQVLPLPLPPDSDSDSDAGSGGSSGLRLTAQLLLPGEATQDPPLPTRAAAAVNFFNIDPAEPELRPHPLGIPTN

SMILES	Ki
NCCCc1cccc(NS(=O)(=O)c2ccccc2)c1	230 nM
O=S(=O)(Nc1ccc(N2CCNCC2)cc1)c1ccccc1	85 nM
CNCCc1cccc(NS(=O)(=O)c2ccccc2)c1	38 nM
COc1ccc(NS(=O)(=O)c2ccccc2)cc1CCN	17 nM
CN(C)CCc1ccn(S(=O)(=O)c2ccccc2)c1	15 nM
O=S(=O)(c1ccccc1)c1ccc(N2CCNCC2)cc1	6.9 nM
O=S(=O)(c1ccccc1)c1ccccc1N1CCNCC1	4000 nM
NCCc1ccc(NS(=O)(=O)c2ccccc2)cc1	38 nM
NCCc1cccc(NS(=O)(=O)c2ccccc2)c1	21 nM
O=S(=O)(Nc1cccc(N2CCNCC2)c1)c1ccccc1	62 nM
CN(C)CCc1cccc(NS(=O)(=O)c2ccccc2)c1	52 nM
O=S(=O)(c1ccccc1)c1cccc(N2CCNCC2)c1	1.2 nM
NCCc1cccc(S(=O)(=O)Nc2ccccc2)c1	70 nM
NCCc1cccc(Sc2ccccc2)c1	115 nM
NCCc1cccc(S(=O)(=O)c2ccccc2)c1	50 nM
Nc1cccc(NS(=O)(=O)c2ccccc2)c1	2840 nM
NCc1cccc(NS(=O)(=O)c2ccccc2)c1	290 nM
NCCc1ccc(S(=O)(=O)c2ccccc2)cc1	37 nM
